In patent US11203598B2, “Compounds for repressing cancer cell growth” (Institute For Cancer Research, priority 2018, dated 2021):

Experiments:
[1] = system: Noxa in 8226 bortezomib resistant multiple myeloma cell line; assay: Western blot of Noxa; assay type: cell-based; details: 25 μM Analog 4, 100 μM Analog 11
Procedure: Referring to FIG. 20 (panel C), 1×10^6 cells/well were seeded in a 12-well plate. 8226 parental and resistant multiple myeloma cell lines were treated with 100 μM CB002, 25 μM Analog 4, or 100 μM Analog 11.

[2] = system: WI38 normal lung fibroblasts; assay: CellTiter-Glo luminescent cell viability assay; assay type: cell-based, human; details: 72 hours
Procedure: (§1) Cells were seeded in 96-well plates at a density of 5×10^3 cells per well. 20 μL of CellTiter-Glo® Reagent was added directly to the wells, following the manufacturer's protocol, and bioluminescence signal was determined using an IVIS imaging system.
Cell lines at a concentration of 4×10^3 cells/well were seeded out on an opaque 96-well plate and treated with CB002 and Analog 11 in ranging doses starting from 200 μmol/L with DMSO controls. At 72 hours after treatment, cells were mixed with 30 μL Cell Titer-Glo reagent and after ten minutes of room temperature incubation were imaged using IVIS imaging system (Xenogen).
(§2) To begin establishing the potential of CB002 as a candidate therapeutic agent, its therapeutic index was determined by treating cancer (DLD-1, SW480, and RXF393) and normal (WI38 and MRC5) cell lines with concentrations of CB002 ranging from 0-500 μM for a period of 72 hours and assessing cell viability by the CellTiter-Glo® luminescence assay (see, FIG. 2). CB002 has a significant therapeutic index among the cells tested.

[3] = system: DLD-1 cells; assay: CellTiter-Glo luminescent cell viability assay; assay type: cell-based; details: Homo sapiens; DLD-1, 72 hours, GraphPad
Procedure: as §1, §2

[4] = system: DLD-1 p73kd cells; assay: CellTiter-Glo luminescent cell viability assay; assay type: cell-based; details: Homo sapiens, 72 hours, GraphPad
Procedure: as §1, §2

[5] = system: MRC5 normal lung fibroblasts; assay: CellTiter-Glo luminescent cell viability assay; assay type: cell-based; details: Homo sapiens, MRCS (normal), 72 hours, GraphPad
Procedure: as §1, §2

[6] = system: RXF393 renal cancer cells; assay: CellTiter-Glo luminescent cell viability assay; assay type: cell-based; details: Homo sapiens, RXF 393; RXF393, 72 hours, GraphPad
Procedure: as §1, §2

[7] = system: normal (WI38 and MRC5) cell lines; assay: CellTiter-Glo cell viability, normal cell lines (summary); assay type: cell-based; details: Homo sapiens; 72 hours
Procedure: as §1, §2

[8] = system: DLD-1 cells; assay: colony formation assay; assay type: cell-based, human; details: 50 μM for 24 hours, then 15 days drug-free
Procedure: (§3) Cells were seeded in 6-well plates at a density of 500 cells per well. Cells were treated with CB002 small molecule for 24 hours. Then, cells were cultured in drug-free complete media for 15 days. During the course of 15 days, the media was changed every 2-3 days. At the end of the two weeks, media was removed, wells were washed twice with Dulbecco's phosphate buffered saline (PBS) and the colonies were fixed and stained with 10% methanol and 0.25% crystal violet (Sigma-Aldrich) for 30 minutes. Wells were then carefully washed with distilled and deionized water and allowed to dry.
(§4) To further validate CB002 as a candidate therapeutic, its capability to affect cell growth was determined by analyzing cancer cell colony formation. Colony formation assays are widely used to determine the ability of a single cell to proliferate and form a colony in culture. This method offers the advantage of elucidating the sensitivity of cells towards cytotoxic agents in a long-term assay that may mimic the response seen in mouse models. […] Referring to FIG. 3, cells were treated with 50 μM of CB002 for a period of 24 hours, at which point media was replaced with complete media for a period of 15 days. Images are from one of three replicates.

[9] = system: SW480 cells; assay: colony formation assay; assay type: cell-based, human; details: 50 μM for 24 hours, then 15 days drug-free
Procedure: as §3, §4

[10] = system: p73 DLD-1 stable knockdown cells; assay: colony formation assay; assay type: cell-based, human; details: 50 μM for 24 hours, then 15 days drug-free
Procedure: as §3, §4

[11] = molecular target: T1, endogenous R175H p53 in RXF393 renal cancer cells (Homo sapiens, UniProt P04637, R175H); assay: Western blot of mutant p53; assay type: cell-based
T1 construct: RXF393 renal cancer cells that endogenously express R175H p53; endogenous in cells; host or cells: RXF393 renal cancer cells
Procedure: After treatment, cells were harvested by trypsinization, washed with PBS, and lysed with RIPA buffer (Sigma-Aldrich) for 30 minutes to 1 hour at 4° C. Protein lysates were spun down and supernatant was collected. Protein quantification was performed using a Pierce™ BCA Protein Assay Kit (Thermo Fisher Scientific). 1×NuPAGE® LDS sample buffer (Thermo Fisher Scientific) and 2-Mercaptoethanol as the reducing agent (Sigma-Aldrich) were added to protein lysates, followed by boiling for 15 minutes at 95° C. Equal total protein amounts samples were loaded into NuPAGE™ Novex™ 4-12% Bis-Tris Protein Gels (1.5 mm, Thermo Fisher Scientific) and gel eletrophoresis was performed with NuPAGE™ MES SDS Running Buffer. Proteins were transferred onto an Immobilon-P membrane (PVDF, EMD Millipore) using a Bio-Rad system with a 10% Tris-Glycine and 10% methanol transfer buffer diluted in distilled and deionized water. After transfer, membranes were blocked with 10% milk in TBST solution and then incubated overnight with primary antibody, washed with TBST and incubated with secondary antibody for 1 hour. Incubations were performed in 5% milk in TBST solution. Signal was detected by using a chemiluminescent detection kit, followed by autoradiography. […]

[12] = system: cell cycle G2 checkpoint; assay: propidium iodide staining cell cycle analysis; assay type: cell-based; details: 24 hour treatment, alone and with etoposide
Procedure: Referring to FIG. 22 (panels A-F), propidium iodide staining cell cycle analysis for 24 hour treatment with DMSO (panel A), CB002 (panel B), CB002 and etoposide (panel C), etoposide (panel D), caffeine (panel E), and caffeine and etoposixe (panel F). […] The deregulation of the G2 checkpoint as a mechanism by caffeine prevents […] tumor cells that are treated with DNA damaging drugs, such as etoposide, from arresting to have time to repair, and thus sensitizes cancer cells to cell death.

Row | SMILES | Noxa expression [1] | IC50 in Wi38 cells compared with colorectal cancer cells ([2]; versus SW480, DLD-1, HCT116 and HCT116 p53-null) | IC50 ([2]; Homo sapiens, WI-38, WI38 (normal), GraphPad) [µM] | IC50 [3] [µM] | IC50 [4] [µM] | IC50 [5] [µM] | IC50 [6] [µM] | IC50 [7] [µM] | colony formation [8] | colony formation [9] | colony formation [10] | mutant p53 degradation, with Ganetespib ([11]; 96 μM CB002 and/or 0.1 μM Ganetespib, 16 hours) | R175H p53 mutant expression ([11]; 100 and 150 μM, 16 and 24 hours) | effect on cell cycle G2 checkpoint [12]
1 | Cn1c(=O)c2c(nc(Nc3ccccc3)n2C)n(C)c1=O [Analog 11, 8-anilino-1,3,7-trimethyl-3,7-dihydro-1Hpurine-2,6-dione] | able to induce Noxa expression |  |  |  |  |  |  |  |  |  |  |  |  | 
2 | Cn1c(=O)c2[nH]c(Nc3ccccc3)nc2n(C)c1=O [CB002, 8-anilino-1,3-dimethyl-3,7-dihydro-1H-purine-2,6-dione] |  | much higher | 642 | 161 | 240 | 647 | 400 | ~650 | significantly decreases colony formation | significantly decreases colony formation | significantly decreases colony formation | enhanced CB002-mediated mutant p53 degradation | decrease R175H p53 mutant expression | does not appear to deregulate the G2 cell cycle checkpoint
